Here are results for two compounds from patent US11034678B2, “Diacylglycerol acyl transferase 2 inhibitors” (Pfizer Inc., priority 2016, dated 2021).

This series can be described thus: Metabolic clearance in HLM (hepatic clearance profile, Clint, app). It counts as in vitro ADME, human.

For the compound `CCOc1cccnc1Oc1cncc(-c2ncc(C(=O)NC(C)(C)CO)cn2)c1` [Example 5, 2-(5-((3-Ethoxypyridin-2-yl)oxy)pyridin-3-yl)-N-(1-hydroxy-2-methylpropan-2-yl)pyrimidine-5-carboxamide], the “CIint, app in HLM” value worked out at 18 µL/min/mg. Take `CCOc1ccccc1O[C@@H]1CCCN(c2ncc(C(=O)NC(C)(C)CO)cn2)C1` [WO2015140658 Example 19.21]: the “CIint, app in HLM” value was 121 µL/min/mg.
